PubChem BioAssay AID330 (DTP/NCI, 2004)
Values joined by “and” are separate entries in the source; they are usually repeats but may differ in a detail not shown here. Equal values may be shown once. Inconclusive results and toxic doses are left out.

Tested on: P388 leukemia ip, CD2F1 mice, survival T/C
Assay: NCI In Vivo Anticancer Drug Screen. Data for tumor model P388 Leukemia (intraperitoneal) in CD2F1 (CDF1) mice
Conditions: endpoint: median survival time, higher = longer survival
Summary of the method: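 Mice carrying the transplanted tumor received test compound or vehicle. Survival was recorded in each group, and the value is the treated-group measurement divided by that of the vehicle-treated control group.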

[1] = dose: 12.5 mg/kg/injection, schedule: Q01DX009 (ip), vehicle: saline
[2] = dose: 25.0 mg/kg/injection, schedule: Q01DX009 (ip), vehicle: saline
[3] = dose: 100.0 mg/kg/injection, schedule: Q01DX001 (ip), vehicle: saline with Tween-80
[4] = dose: 200.0 mg/kg/injection, schedule: Q01DX001 (ip), vehicle: saline with Tween-80
[5] = dose: 400.0 mg/kg/injection, schedule: Q01DX001 (ip), vehicle: saline with Tween-80
[6] = dose: 60.0 mg/kg/injection, schedule: Q01DX005 (ip), vehicle: saline with Tween-80
[7] = dose: 120.0 mg/kg/injection, schedule: Q01DX005 (ip), vehicle: saline with Tween-80
[8] = dose: 25.0 mg/kg/injection, schedule: Q01DX005 (ip), vehicle: Klucel (hydroxypropylcellulose) (HPC)
[9] = dose: 50.0 mg/kg/injection, schedule: Q01DX005 (ip), vehicle: Klucel (hydroxypropylcellulose) (HPC)
[10] = dose: 100.0 mg/kg/injection, schedule: Q01DX005 (ip), vehicle: Klucel (hydroxypropylcellulose) (HPC)
[11] = dose: 200.0 mg/kg/injection, schedule: Q01DX005 (ip), vehicle: Klucel (hydroxypropylcellulose) (HPC)
[12] = dose: 100.0 mg/kg/injection, schedule: Q04DX002 (ip), vehicle: saline with Tween-80
[13] = dose: 100.0 mg/kg/injection, schedule: Q01DX009 (ip), vehicle: saline with Tween-80
[14] = dose: 100.0 mg/kg/injection, schedule: Q04DX003 (ip), vehicle: saline with Tween-80
[15] = dose: 200.0 mg/kg/injection, schedule: Q04DX003 (ip), vehicle: saline with Tween-80
[16] = dose: 400.0 mg/kg/injection, schedule: Q04DX003 (ip), vehicle: saline with Tween-80

For `CNC(=O)OCc1c(COC(=O)NC)c(-c2ccc(-c3ccccc3)cc2)n(C)c1C`, the T/C (dose: 2.5 mg/kg/injection, schedule: Q01DX009 (ip), vehicle: distilled water + Tween-80) was 154 % of control, the T/C (dose: 5.0 mg/kg/injection, schedule: Q01DX009 (ip), vehicle: distilled water + Tween-80) was 152 % of control and the T/C (dose: 10.0 mg/kg/injection, schedule: Q01DX009 (ip), vehicle: distilled water + Tween-80) was 151 % of control. The T/C (dose: 15.0 mg/kg/injection, schedule: Q01DX009 (ip), vehicle: distilled water + Tween-80) was 153 % of control and the T/C (dose: 20.0 mg/kg/injection, schedule: Q01DX009 (ip), vehicle: distilled water + Tween-80) was 94 % of control.

For `Clc1ccccc1CN1COc2c(cc(Cl)c3cccnc23)C1`, the T/C (dose: 100.0 mg/kg/injection, schedule: Q04DX003 (ip), vehicle: Klucel (hydroxypropylcellulose) (HPC)) was 95 % of control, the T/C (dose: 200.0 mg/kg/injection, schedule: Q04DX003 (ip), vehicle: Klucel (hydroxypropylcellulose) (HPC)) was 95 % of control and the T/C (dose: 400.0 mg/kg/injection, schedule: Q04DX003 (ip), vehicle: Klucel (hydroxypropylcellulose) (HPC)) was 95 % of control.

In the case of `CCN(C)N=Nc1cccnc1`, the T/C [1] was 103 % of control and 92 % of control and 97 % of control, the T/C [2] was 100 % of control and 102 % of control and 92 % of control and the T/C (dose: 50.0 mg/kg/injection, schedule: Q01DX009 (ip), vehicle: saline) was 103 % of control and 111 % of control and 91 % of control. For the same compound, the T/C (dose: 100.0 mg/kg/injection, schedule: Q01DX009 (ip), vehicle: saline) was 107 % of control and 110 % of control.

`CNc1c([N+](=O)[O-])cc2[nH]c(C)nc2c1[N+](=O)[O-]` was tested, and the T/C (dose: 6.25 mg/kg/injection, schedule: Q04DX003 (ip), vehicle: saline with Tween-80) was 103 % of control, the T/C (dose: 12.5 mg/kg/injection, schedule: Q04DX003 (ip), vehicle: saline with Tween-80) was 113 % of control and the T/C (dose: 25.0 mg/kg/injection, schedule: Q04DX003 (ip), vehicle: saline with Tween-80) was 99 % of control and 92 % of control.

`c1ccc(-c2nc(-c3ccccn3)cc3ccccc23)cc1` was tested, and the T/C [3] was 91 % of control, the T/C [4] was 92 % of control and the T/C [5] was 112 % of control.

For `O=C1C2=C(Nc3cc([N+](=O)[O-])ccc3N2)OC1c1c2ccccc2cc2ccccc12` (stereo not drawn), the T/C (dose: 60.0 mg/kg/injection, schedule: Q01DX005 (ip), vehicle: Klucel (hydroxypropylcellulose) (HPC)) was 94 % of control and the T/C (dose: 120.0 mg/kg/injection, schedule: Q01DX005 (ip), vehicle: Klucel (hydroxypropylcellulose) (HPC)) was 88 % of control.

`O=C(Nc1ccc(Cl)cc1)Nc1nnc(/C=C/c2ccccc2)o1` was tested, and the T/C [6] was 96 % of control and the T/C [7] was 96 % of control.

`COc1ccc(CCN2C(=O)CCC3=C2CCCC3=O)cc1OC` was tested, and the T/C [8] was 102 % of control, the T/C [9] was 100 % of control and the T/C [10] was 102 % of control. The T/C [11] was 100 % of control.

`CN=C1SC(C)(C)NN1C` was tested, and the T/C (dose: 12.5 mg/kg/injection, schedule: Q01DX005 (ip), vehicle: Klucel (hydroxypropylcellulose) (HPC)) was 104 % of control, the T/C [8] was 104 % of control and the T/C [9] was 101 % of control and 114 % of control.

For `O=[N+]([O-])c1cccc2c[n+](Cc3ccc(Br)cc3)ccc12`, the T/C (dose: 6.25 mg/kg/injection, schedule: Q01DX009 (ip), vehicle: saline) was 107 % of control, the T/C [1] was 117 % of control and the T/C [2] was 118 % of control.

In the case of `Cc1cc(NS(=O)(=O)c2ccc(N=c3c4ccccc4n(C)c4ccccc34)cc2)no1`, the T/C (dose: 50.0 mg/kg/injection, schedule: Q01DX005 (ip), vehicle: saline with Tween-80) was 103 % of control, the T/C (dose: 100.0 mg/kg/injection, schedule: Q01DX005 (ip), vehicle: saline with Tween-80) was 102 % of control and the T/C (dose: 200.0 mg/kg/injection, schedule: Q01DX005 (ip), vehicle: saline with Tween-80) was 103 % of control.

For `CCOC(=O)c1c(C)[nH]c(=O)c(C#N)c1NC1CCCCC1`, the T/C (dose: 25.0 mg/kg/injection, schedule: Q04DX002 (ip), vehicle: saline with Tween-80) was 98 % of control, the T/C (dose: 50.0 mg/kg/injection, schedule: Q04DX002 (ip), vehicle: saline with Tween-80) was 100 % of control and the T/C [12] was 92 % of control.

With `Cc1ccc(NC(=O)N(C)C)cc1NC(=O)N(C)C` the T/C [6] was 100 % of control, the T/C [7] was 100 % of control and the T/C (dose: 240.0 mg/kg/injection, schedule: Q01DX005 (ip), vehicle: saline with Tween-80) was 101 % of control.

In the case of `CCN(CC)CCNc1ccc(COC(C)=O)c2oc3ccccc3c(=O)c12`, the T/C (dose: 6.25 mg/kg/injection, schedule: Q01DX005 (ip), vehicle: saline with Tween-80) was 111 % of control and the T/C (dose: 12.5 mg/kg/injection, schedule: Q01DX005 (ip), vehicle: saline with Tween-80) was 118 % of control.

In the case of `CCCCN(CCCC)CCCCCCCC(O)c1cc2ccccc2c2ccccc12` (stereo not drawn), the T/C (dose: 50.0 mg/kg/injection, schedule: Q01DX005 (ip), vehicle: saline + Tween-80 + alcohol) was 113 % of control and the T/C (dose: 100.0 mg/kg/injection, schedule: Q01DX005 (ip), vehicle: saline + Tween-80 + alcohol) was 110 % of control.

In the case of `O=C(c1ccccc1)N1CC1`, the T/C (dose: 50.0 mg/kg/injection, schedule: Q01DX009 (ip), vehicle: saline + alcohol) was 94 % of control, the T/C (dose: 100.0 mg/kg/injection, schedule: Q01DX009 (ip), vehicle: saline + alcohol) was 97 % of control and the T/C (dose: 200.0 mg/kg/injection, schedule: Q01DX009 (ip), vehicle: saline + alcohol) was 100 % of control. The T/C (dose: 400.0 mg/kg/injection, schedule: Q01DX009 (ip), vehicle: saline + alcohol) was 116 % of control.

With `CC1=NN(C(=O)c2ccccc2)C(=O)C1N=Nc1ccc(Cl)cc1` (stereo not drawn) the T/C [3] was 94 % of control, the T/C [4] was 94 % of control and the T/C [5] was 88 % of control.

`COc1cc(CCN=Cc2cc(Cl)cc(Cl)c2O)c([N+](=O)[O-])cc1OC` was tested, and the T/C [9] was 93 % of control, the T/C [10] was 102 % of control and the T/C [11] was 111 % of control.

For `CCOC(=O)/C(O)=C/C1=CC(=O)CC(C)(C)C1`, the T/C [12] was 110 % of control, the T/C (dose: 200.0 mg/kg/injection, schedule: Q04DX002 (ip), vehicle: saline with Tween-80) was 114 % of control and the T/C (dose: 400.0 mg/kg/injection, schedule: Q04DX002 (ip), vehicle: saline with Tween-80) was 103 % of control.

For `CCCCCCCCCCCCCCCCCCCCCC(O)(CC)CC`, the T/C [13] was 100 % of control, the T/C [14] was 100 % of control and the T/C (dose: 200.0 mg/kg/injection, schedule: Q01DX009 (ip), vehicle: saline with Tween-80) was 109 % of control. The T/C [15] was 100 % of control, the T/C (dose: 400.0 mg/kg/injection, schedule: Q01DX009 (ip), vehicle: saline with Tween-80) was 100 % of control and the T/C [16] was 110 % of control.

In the case of `CC1CN1P(=S)(Oc1ccccc1)N1CC1C` (stereo not drawn), the T/C [13] was 110 % of control, the T/C [14] was 109 % of control and the T/C [15] was 118 % of control. For the same compound, the T/C [16] was 122 % of control.

In the case of `C=C(C)C1C/C=C2/C(=O)OC(CC3(C)CC(=O)C(CC(=O)C1)O3)C2O` (stereo not drawn), the T/C (dose: 4.0 mg/kg/injection, schedule: Q01DX009 (ip), vehicle: Klucel (hydroxypropylcellulose) (HPC)) was 101 % of control, the T/C (dose: 8.0 mg/kg/injection, schedule: Q01DX009 (ip), vehicle: Klucel (hydroxypropylcellulose) (HPC)) was 101 % of control and the T/C (dose: 16.0 mg/kg/injection, schedule: Q01DX009 (ip), vehicle: Klucel (hydroxypropylcellulose) (HPC)) was 104 % of control. For the same compound, the T/C (dose: 32.0 mg/kg/injection, schedule: Q01DX009 (ip), vehicle: Klucel (hydroxypropylcellulose) (HPC)) was 101 % of control.

For `COC(=O)c1cccc2c(Br)cc3ccccc3c12`, the T/C (dose: 150.0 mg/kg/injection, schedule: Q04DX003 (ip), vehicle: Klucel (hydroxypropylcellulose) (HPC)) was 95 % of control and the T/C (dose: 300.0 mg/kg/injection, schedule: Q04DX003 (ip), vehicle: Klucel (hydroxypropylcellulose) (HPC)) was 91 % of control.

For `[Pd].c1ccc([PH+](CC[PH+](c2ccccc2)c2ccccc2)c2ccccc2)cc1.c1ccc([PH+](CC[PH+](c2ccccc2)c2ccccc2)c2ccccc2)cc1`, the T/C (dose: 30.0 mg/kg/injection, schedule: Q01DX005 (ip), vehicle: saline with Tween-80) was 99 % of control.

In the case of `O=C1CC2(CCCCC2)C(=O)N1c1ccc(S(=O)(=O)NC(=S)Nc2ccc(Br)cc2)cc1`, the T/C (dose: 50.0 mg/kg/injection, schedule: Q01DX009 (ip), vehicle: Klucel (hydroxypropylcellulose) (HPC)) was 98 % of control, the T/C (dose: 100.0 mg/kg/injection, schedule: Q01DX009 (ip), vehicle: Klucel (hydroxypropylcellulose) (HPC)) was 95 % of control and the T/C (dose: 200.0 mg/kg/injection, schedule: Q01DX009 (ip), vehicle: Klucel (hydroxypropylcellulose) (HPC)) was 104 % of control.
